The subject of data set [1] is HSV-1, HSV-1R, HSV-2 and HSV-2R. Put plainly: Action on the viral infection: vero cells pretreated before infection. In kind it is cell-based, herpes simplex virus. The procedure:
The abovementioned viral suspensions of HSV-1, HSV-1R, HSV-2 and HSV-2R, defined by an MOI of 0.01 ID50/cell for a cell concentration of 350,000 cells/ml, were tested.
Acyclovir and dextran sulphate used at concentrations comprised between 0.05 and 5 μg/ml were used as reference products in this series of experiments. PS3 concentrations of 0.125 to 1,250 μg/ml were used, and the experiments were carried out in 96-well microtitre plates.
To verify whether PS3 protects a cell culture when it is used before its infection by the abovementioned viral strains, the procedure was as follows.
Vero cells were seeded at a cell density of […] in 100 μl of MEM medium containing 8% FCS.
A solution of 50 μl of PS3 or the comparison product, that is to say acyclovir having a given concentration, was then added to each well filled with 50 μl of MEM medium with 8% FCS.
The microtitre plate containing the cells treated with PS3 or the reference product was than placed in an oven at 37° C. for 6, 12 or 24 hours. The cells were then washed with 100 μl of MEM medium in order to remove the PS3 or the reference product.
A volume of 50 μl of a viral suspension was then added to each well, as well as 50 μl of MEM medium with 8% FCS; and the plates were kept at 4° C. for 1 hour.
The infected cells were then placed in an oven at 37° C. for 48 or 72 hours.

In data set [2] the test system is rats of the Sprague Dawley breed. Nature of the data set: Acute oral toxicity. In kind it is in vivo. How it is done: (§1) This study was carried out on white rabbits of the New Zealand breed and on rats of the Sprague Dawley breed.
(§2) The rats were subjected on the one hand to a study for determination of the acute dermal toxicity and on the other hand to a study for determination of the acute oral toxicity.
(§3) observing the OECD Guidelines no. 404 and 405 of 24 Feb. 1987 to the extent that they are studies carried out on white rabbits, and OECD Guidelines no. 401 and 402 (1987) as well as EEC Directive B-I 92/69 (1992) to the extent that they are studies carried out on Sprague Dawley rats.

Data set [3] deals with HSV-1, HSV-1R, HSV-2 and HSV-2R. Put plainly: Action on the viral penetration. In kind it is cell-based, herpes simplex virus. The procedure:
To determine whether PS3 has an effect on the viral penetration, the procedure was as follows.
Vero cells were seeded at a cell density of 3.5·10^4 cells/well of a microtitre plate in 100 μl of MEM medium containing 8% FCS.
After 24 hours, the confluent cells were brought into contact with 50 μl of a viral suspension for 1 hour at 4° C.
The cell carpet was then incubated with various concentrations of PS3 (0.125-1,250 μg/ml) or reference product, in this case acyclovir ([…]), at 37° C. in order to facilitate penetration of the viruses.
After incubation times of 15, 30 and 60 minutes, the corresponding cells were washed with 100 μl of PBS and then treated for 1 minute with 0.5 mg/ml of proteinase K (Sigma) in solution in PBS in order to remove all the extracellular viruses which had not been adsorbed.
This treatment was stopped by addition of 1 mM of phenylmethylsulphonyl fluoride (Sigma) in solution in PBS containing 3% FCS.
The cells were then washed with 100 μl of PBS per well and cultured again at 37° C. in 200 μl of MEM medium supplemented with 8% FCS.
Controls of the growth of the cells and of the viruses were run simultaneously. After incubation for 48 hours, the effect of PS3 and of acyclovir on the penetration of the virus was measured using the neutral red method.

Data set [4] shares this test system. Put plainly: Virucidal action: viral suspensions treated before infection of vero cells. Format: cell-based, herpes simplex virus. The procedure:
To determine whether PS3 has a virucidal effect, the procedure was as follows.
Vero cells were seeded at a cell density of 3·10^4 cells/well of a microtitre plate in 100 μl of MEM medium containing 8% FCS for 24 hours before the test.
On the day of the test, 50 μl of each of the viral suspensions identified above were treated with 50 μl of PS3 or reference product (acyclovir) having a given concentration for one hour at 37° C.
An amount of 100 μl of the mixture of this viral suspension, to which PS3 or the reference product had been added, was introduced into each well of the microtitre plate. The plate was kept at 4° C. for one hour.
It is to be noted that controls of the growth of the cells and of the viruses were run simultaneously.
The plates containing the infected cells were then placed in an oven at 37° C. for 48 or 72 hours.
The virucidal effect of PS3 was evaluated by measurement of the EC50 values determined in accordance with the method described in Example 3.

Data set [5] relates to rats of the Sprague Dawley breed. Put plainly: Acute dermal toxicity. In kind it is in vivo. How it is done: as §1, §2, §3
Where [6] appears, read: strains HSV-1, HSV-2, HSV-1R, HSV-2R, cells pretreated 6, 12 or 24 hours, washed, then infected.
[7] abbreviates: non-resistant strains HSV-1 and HSV-2.

Data on 2 compounds can be found in patent US8288363B2, “Medicaments for anti-herpes virus treatments” (ASE & BIO, priority 2006, dated 2012).

Turning to sulphated laminarin [PS3], the Effect before infection result in data set [1] (setting [6]) was “not protected and no”. In addition, in data set [2], the “acute toxicity by the oral route” value is listed as “greater than 2 g/kg of body weight”. Further, the Effect on penetration entry in data set [3] (strains HSV-1, HSV-2, HSV-1R, HSV-2R) is “no antiviral activity on penetration and no”. Also, the Virucidal effect entry in data set [4] (strains HSV-1, HSV-2, HSV-1R, HSV-2R, viral suspension treated one hour at 37° C.) is “no virucidal effect and no”. Besides, the “dermal 50% lethal dose” value in data set [5] was “greater than 2 g/kg of body weight”.

Regarding `Nc1nc2c(ncn2COCCO)c(=O)[nH]1` [Acyclovir, acyclovir, reference compound], the Effect before infection result in data set [1] (setting [7]) was “no”; in data set [1] (setting [6]) it was “not protected”. Further, in data set [3] (setting [7]), the Effect on penetration result is recorded as “no”. Moreover, the Virucidal effect entry in data set [4] (setting [7]) is given as “no”.
